In test [1] the target is T1, CYP11B2 (aldosterone synthase) (Homo sapiens, UniProt P19099).
T1 construct: the NCI-H295R cells have CYP11B2 (aldosterone synthase) and CYP11B1 (steroid 11-hydroxylase); host or cells: NCI-H295R
T1 sequence (P19099 25-503): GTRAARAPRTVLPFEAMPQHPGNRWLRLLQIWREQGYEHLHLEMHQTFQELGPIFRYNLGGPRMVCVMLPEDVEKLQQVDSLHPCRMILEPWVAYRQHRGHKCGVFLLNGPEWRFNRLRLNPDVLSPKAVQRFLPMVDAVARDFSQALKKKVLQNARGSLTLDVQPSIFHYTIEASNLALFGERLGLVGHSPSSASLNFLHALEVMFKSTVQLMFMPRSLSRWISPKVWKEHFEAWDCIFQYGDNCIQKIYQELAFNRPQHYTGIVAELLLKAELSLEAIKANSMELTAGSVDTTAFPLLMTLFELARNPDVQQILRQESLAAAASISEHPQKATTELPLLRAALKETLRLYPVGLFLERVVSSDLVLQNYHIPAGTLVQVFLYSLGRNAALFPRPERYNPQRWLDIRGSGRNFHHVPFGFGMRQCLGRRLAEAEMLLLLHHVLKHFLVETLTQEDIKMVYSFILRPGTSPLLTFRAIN
Nature of the test: Inhibition of aldosterone secretion in NCI-H295R cells. The class given is cell-based. Conditions: human adrenocortical carcinoma NCI-H295R cells, 24 hours with cell stimulant. An excerpt:
(§1) The activities of a compound according to the present invention can be assessed by the following in vitro method well-described in the art.
(§2) In particular, the inhibition of aldosterone and cortisol secretion in vitro can be determined by the following assay.
(§3) The cell line NCI-H295R was originally isolated from an adrenocortical carcinoma and has been characterized in the literature through the stimulable secretion of steroid hormones and the presence of the enzymes essential for steroidogenesis. The cells show the physiological property of zonally undifferentiated human foetal adrenocortical cells which, however, have the capacity to produce the steroid hormones which are formed in the three phenotypically distinguishable zones in the adult adrenal cortex. Thus, the NCI-H295R cells have CYP11B2 (aldosterone synthase) and CYP11B1 (steroid 11-hydroxylase).
(§4) The human adrenocortical carcinoma NCI-H295R cell line is obtained from American Type Culture Collection (Manassas, Va.). Insulin/transferrin/selenium (ITS)-A supplement (100×), DMEM/F-12, antibiotic/antimycotic (100×), and fetal calf serum (FCS) are purchased from Invitrogen (Carlsbad, Calif.). Anti-mouse PVT scintillation proximity assay (SPA) beads and NBS 96-well plates are obtained from Amersham (Piscataway, N.J.) and Corning (Acton, Mass.), respectively. Clear bottom 96-well flat bottom plates are purchased from Costar (Corning, N.Y.). Aldosterone and angiotensin (Ang II) are purchased from Sigma (St. Louis, Mo.). D[1,2,6,7-3H(N)]aldosterone and [1,2,6,7-3H(N)]cortisol are acquired from PerkinElmer (Boston, Mass.). Nu-serum is a product of BD Biosciences (Franklin Lakes, N.J.).
(§5) For in vitro measurement of aldosterone and cortisol activity, human adrenocortical carcinoma NCI-H295R cells are seeded in NBS 96-well plates at a density of 25,000 cells/well in 100 μL of a growth medium containing DMEM/F12 supplemented with 10% FCS, 2.5% Nu-serum, 1 μg ITS/ml, and 1× antibiotic/antimycotic. The medium is changed after culturing for 3 days at 37° C. under an atmosphere of 5% CO2/95% air. On the following day, cells are rinsed with 100 μL of DMEM/F12 and incubated in quadruplicate wells at 37° C. for 24 hours with 100 μL of treatment medium containing a cell stimulant and a compound at different concentrations. […] Cell stimulants which can be used are angiotensin-II (1 micromolar), potassium ions (16 millimolar), forskolin (10 micromolar) or a combination of two stimulants. At the end of incubation, the excretion of aldosterone and cortisol into the culture medium can be detected and quantified by commercially available, specific monoclonal antibodies in radioimmunoassays in accordance with the manufacturer's instructions.
(§6) Measurement of aldosterone can also be performed using a 96-well plate format. Each test sample is incubated with 0.02 μCi of D[1,2,6,7-3H(N)]aldosterone and 0.3 μg of anti-aldosterone antibody in phosphate-buffered saline (PBS) containing 0.1% Triton X-100, 0.1% bovine serum albumin, and 12% glycerol in a total volume of 200 μL at room temperature for 1 hour. Anti-mouse PVT SPA beads (50 μL) are then added to each well and incubated overnight at room temperature prior to counting in a Microbeta plate counter. The amount of aldosterone in each sample is calculated by comparing with a standard curve generated using known quantities of the hormone. Measurement of cortisol can be performed in a manner similar to that of aldosterone, except that [1,2,6,7-3H(N)]cortisol is used.
(§7) Inhibition of the release of a steroid can be used as a measure of the respective enzyme inhibition by the added test compounds. The dose-dependent inhibition of enzymatic activity by a compound is calculated by means of an inhibition plot which is characterized by an IC50. […] The inhibition plot is calculated by fitting a 4-parameter logistic function to the raw data points using the least squares method.

Test [2] has as its target T2, CYP11B1 (steroid 11-hydroxylase) (Homo sapiens, UniProt P15538).
T2 construct: the NCI-H295R cells have CYP11B2 (aldosterone synthase) and CYP11B1 (steroid 11-hydroxylase); host or cells: NCI-H295R
T2 sequence (P15538 25-503): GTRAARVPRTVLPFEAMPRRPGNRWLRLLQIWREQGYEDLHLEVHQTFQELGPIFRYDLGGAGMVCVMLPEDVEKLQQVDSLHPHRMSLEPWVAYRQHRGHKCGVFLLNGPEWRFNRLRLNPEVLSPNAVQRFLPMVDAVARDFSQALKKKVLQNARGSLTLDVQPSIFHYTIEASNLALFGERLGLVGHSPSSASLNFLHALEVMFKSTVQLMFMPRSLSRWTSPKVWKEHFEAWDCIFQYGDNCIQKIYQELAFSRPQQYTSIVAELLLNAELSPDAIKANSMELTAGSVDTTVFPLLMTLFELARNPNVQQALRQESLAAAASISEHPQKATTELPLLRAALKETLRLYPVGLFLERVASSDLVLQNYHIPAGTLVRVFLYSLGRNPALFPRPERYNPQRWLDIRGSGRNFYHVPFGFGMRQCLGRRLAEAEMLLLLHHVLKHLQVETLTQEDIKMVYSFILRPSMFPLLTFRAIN
Description: Inhibition of cortisol secretion in NCI-H295R cells. The note with it: human adrenocortical carcinoma NCI-H295R cells, 24 hours with cell stimulant. The class given is cell-based.
Excerpt: as §1, §2, §3, §4, §5, §6, §7

Data on 23 compounds can be found in patent US8791141B2, “Organic compounds” (Novartis AG, priority 2008, dated 2014).

Where a name gives a salt, the structure may show the parent alone.

Consider `Cc1c(-c2cccnc2)[nH]c2ccc(C#N)cc12` [Example 6, 3-Methyl-2-pyridin-3-yl-1H-indole-5-carbonitrile], for which the values for the concentration for half-maximal inhibition (IC50) in test [1] and in test [2] were 1 nM and 7 nM, respectively.
On the same counts, the results for `Cc1c(-c2cccnc2)n(Cc2cccc(C#N)c2)c2cc(F)ccc12` [Example 15, 3-(6-Fluoro-3-methyl-2-pyridin-3-yl-1H-indol-1-ylmethyl)-benzonitrile hydrochloride] are 27 nM and 447 nM.
Consider `Cc1c(-c2cccnc2)n(Cc2ccc(C(=O)O)cc2)c2cccc(F)c12` [Example 33, 4-(4-Fluoro-3-methyl-2-pyridin-3-yl-1H-indol-1-ylmethyl)-benzoic acid], for which the values for the IC50 in test [1] and in test [2] were 14 nM and 662 nM, respectively.
With `N#Cc1cccc(C(=O)n2c(-c3cccnc3)cc3cc(C#N)ccc32)c1` [Example 42, 1-(3-Cyano-benzoyl)-2-pyridin-3-yl-1H-indole-5-carbonitrile], the IC50 turned out to be 30 nM in test [1] and 600 nM in test [2].
Consider `Cc1c(-c2cccnc2)n(COC(=O)C(C)(C)C)c2ccc(Cl)cc12` [Example 65, 2,2-Dimethyl-propionic acid 5-chloro-3-methyl-2-pyridin-3-yl-indol-1-ylmethyl ester], for which the results for the IC50 in test [1] and in test [2] were 10 nM and 240 nM, respectively.
On to `COc1ccncc1-c1cc2cc(C#N)ccc2[nH]1` [Example 90, 2-(4-Methoxy-pyridin-3-yl)-1H-indole-5-carbonitrile], for which the IC50 in test [1] amounted to 40 nM; in test [2], 400 nM.
For the compound `COc1cncc(-c2cc3ccccc3n2C)c1` [Example 101, 2-(5-Methoxy-pyridin-3-yl)-1-methyl-1H-indole], the half-inhibitory concentration (IC50) in test [1] stood at 2 nM; in test [2], 37 nM.
On the same counts, the results for `Cn1c(-c2cnccc2CO)cc2ccccc21` [Example 106, [3-(1-Methyl-1H-indol-2-yl)-pyridin-4-yl]-methanol] are 85 nM and 530 nM.
On the same counts, the results for `Cn1c(-c2cnccc2Cl)cc2ccccc21` [Example 107, 2-(4-Chloro-pyridin-3-yl)-1-methyl-1H-indole] are 9 nM and 220 nM.
On to `Cn1c(-c2cncc(Cl)c2)c(C#N)c2ccccc21` [Example 123, 2-(5-Chloro-pyridin-3-yl)-1-methyl-1H-indole-3-carbonitrile], for which the IC50 was 78 nM in test [1] and 650 nM in test [2].
Regarding `Cn1c(-c2cncc(OS(C)(=O)=O)c2)c(C#N)c2ccccc21` [Example 138, Methanesulfonic acid 5-(3-cyano-1-methyl-1H-indol-2-yl)-pyridin-3-yl ester], the IC50 was 43 nM in test [1] and 326 nM in test [2].
On the same counts, the results for `Cn1c(-c2cncc(CN3CCN(S(C)(=O)=O)CC3)c2)c(C#N)c2ccc(Cl)cc21` [Example 180, 6-Chloro-2-[5-(4-methanesulfonyl-piperazin-1-ylmethyl)-pyridin-3-yl]-1-methyl-1H-indole-3-carbonitrile] are 2 nM and 3 nM.
On the same counts, the results for `CC(C)S(=O)(=O)NCc1cncc(-c2c(C#N)c3ccc(Cl)cc3n2C)c1` [Example 186, Propane-2-sulfonic acid [5-(6-chloro-3-cyano-1-methyl-1H-indol-2-yl)-pyridin-3-ylmethyl]amide] are 21 nM and 390 nM.
On the same counts, the results for `COCCOC(=O)NCc1cncc(-c2c(C#N)c3ccc(Cl)cc3n2C)c1` [Example 192] are 4 nM and 20 nM.
For the compound `CC(C)NC(=O)NCc1cncc(-c2c(C#N)c3ccc(Cl)cc3n2C)c1` [Example 196, 1-[5-(6-Chloro-3-cyano-1-methyl-1H-indol-2-yl)-pyridin-3-ylmethyl]-3-isopropyl-urea], the results for the IC50 in test [1] and in test [2] were 3 nM and 19 nM, respectively.
Consider `CCS(=O)(=O)NCc1cncc(-c2cc3ccc(Cl)cc3n2C)c1` [Example 206, N-[5-(6-Chloro-1-methyl-1H-indol-2-yl)-pyridin-3-ylmethyl]-ethanesulfonamide], for which the results for the IC50 in test [1] and in test [2] were 2 nM and 213 nM, respectively.
For the compound `Cn1c(-c2cncc(CNS(=O)(=O)CC(F)(F)F)c2)cc2ccc(Cl)cc21` [Example 209, 2,2,2-Trifluoro-ethanesulfonic acid [5-(6-chloro-1-methyl-1H-indol-2-yl)-pyridin-3-ylmethyl]-amide], the IC50 is 23 nM in test [1] and 788 nM in test [2].
On the same counts, the results for `CC(C)C(=O)C1(CNc2cncc(-c3cc4ccccc4n3C)c2)CCC1` [Example 214, 2-Methyl-1-(1-{[5-(1-methyl-1H-indol-2-yl)-pyridin-3-ylamino]-methyl}-cyclobutyl)-propan-1-one] are 56 nM and 377 nM.
As to `COCCc1cncc(-c2c(C#N)c3ccccc3n2C)c1` [Example 217, 2-[5-(2-Methoxy-ethyl)-pyridin-3-yl]-1-methyl-1H-indole-3-carbonitrile], the IC50 in test [1] came out at 4 nM; in test [2], 22 nM.
On the same counts, the results for `CCS(=O)(=O)Nc1cncc(-c2cc3ccccc3n2C)c1` [Example 226, Ethanesulfonic acid [5-(1-methyl-1H-indol-2-yl)-pyridin-3-yl]-amide] are 36 nM and 345 nM.
On the same counts, the results for `CN(C)S(=O)(=O)Nc1cncc(-c2cc3ccccc3n2C)c1` [Example 228] are 105 nM and over 1000 nM.
On the same counts, the results for `CCc1c(-c2cncc(NS(=O)(=O)CC)c2)n(C)c2ccccc12` [Example 229, Ethanesulfonic acid [5-(1-methyl-3-ethyl-1H-indol-2-yl)-pyridin-3-yl]-amide] are 5 nM and 125 nM.
In the case of `CCS(=O)(=O)N(C)c1cncc(-c2cc3ccccc3n2C)c1` [Example 231, Ethanesulfonic acid methyl-[5-(1-methyl-1H-indol-2-yl)-pyridin-3-yl]-amide], the results for the IC50 in test [1] and in test [2] were 2 nM and 51 nM, respectively.

Usually IC50 stands for the midpoint of a concentration-inhibition curve.
